Experimental data reported in patent US8173654B2, “Triazolopyridazine compounds” (Janssen Pharmaceutica N.V., priority 2005, dated 2012).

Columns and labels:
c-Met [1] = target: T1, c-Met (Homo sapiens, UniProt P08581); assay: Cell based ELISA assay for HGF stimulated c-Met phosphorylation in S114 cells; design: expressed in transfected cells; host or cells: S114 (murine NIH 3T3 derived); details: read-out: c-Met Cell ELISA IC-50
Target sequence in this assay (P08581 25-1390): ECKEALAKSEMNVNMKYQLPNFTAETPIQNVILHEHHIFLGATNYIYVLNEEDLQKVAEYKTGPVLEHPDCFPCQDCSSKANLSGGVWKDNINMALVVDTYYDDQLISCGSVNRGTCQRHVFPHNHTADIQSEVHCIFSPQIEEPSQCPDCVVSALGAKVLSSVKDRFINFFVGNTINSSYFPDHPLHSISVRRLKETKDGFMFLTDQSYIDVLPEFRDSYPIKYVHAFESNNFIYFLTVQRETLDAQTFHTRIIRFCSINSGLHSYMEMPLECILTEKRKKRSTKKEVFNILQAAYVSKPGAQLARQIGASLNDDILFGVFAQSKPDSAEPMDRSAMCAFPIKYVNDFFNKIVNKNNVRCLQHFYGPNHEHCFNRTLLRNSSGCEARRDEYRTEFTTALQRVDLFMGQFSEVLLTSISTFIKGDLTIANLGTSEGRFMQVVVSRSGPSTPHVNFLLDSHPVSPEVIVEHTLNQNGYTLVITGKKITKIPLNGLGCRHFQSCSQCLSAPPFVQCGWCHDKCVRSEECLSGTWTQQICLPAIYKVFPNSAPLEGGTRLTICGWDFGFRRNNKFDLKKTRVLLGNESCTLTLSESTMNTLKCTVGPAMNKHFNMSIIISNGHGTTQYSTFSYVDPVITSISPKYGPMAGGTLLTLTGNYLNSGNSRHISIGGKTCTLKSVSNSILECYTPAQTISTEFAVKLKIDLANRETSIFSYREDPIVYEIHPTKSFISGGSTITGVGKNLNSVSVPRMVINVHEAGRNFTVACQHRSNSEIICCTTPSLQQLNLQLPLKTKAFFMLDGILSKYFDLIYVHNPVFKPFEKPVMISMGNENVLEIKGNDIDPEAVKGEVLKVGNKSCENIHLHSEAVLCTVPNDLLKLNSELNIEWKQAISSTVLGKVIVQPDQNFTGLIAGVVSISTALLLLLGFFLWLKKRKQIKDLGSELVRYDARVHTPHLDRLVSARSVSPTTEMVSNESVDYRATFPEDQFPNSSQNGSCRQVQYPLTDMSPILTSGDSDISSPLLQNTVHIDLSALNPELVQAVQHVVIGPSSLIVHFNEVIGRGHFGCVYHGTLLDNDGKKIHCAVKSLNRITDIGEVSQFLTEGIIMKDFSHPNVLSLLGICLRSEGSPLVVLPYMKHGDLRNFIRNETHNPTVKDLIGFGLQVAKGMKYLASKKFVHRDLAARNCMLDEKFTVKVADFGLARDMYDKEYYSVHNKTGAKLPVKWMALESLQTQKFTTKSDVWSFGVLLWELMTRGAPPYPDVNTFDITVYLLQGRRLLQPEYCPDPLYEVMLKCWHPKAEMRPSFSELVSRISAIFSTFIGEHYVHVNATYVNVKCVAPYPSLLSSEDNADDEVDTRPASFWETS

c-Met [2] = target: T1, c-Met; assay: Delfia autophosphorylation kinase assay on the c-Met; assay type: biochemical; design: The purified His6 tagged cytoplasmic domain of c-Met was diluted to a concentration of 500 ng/ml; host or cells: Sf9 insect cells (baculovirus, pFastBacHTa); details: His6 tagged cytoplasmic domain of c-Met, 1 μM ATP; read-out: cMet Delfia autophos IC-50
Procedure, shortened: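 Time-resolved fluorescence tracked autophosphorylation of the His6-tagged c-Met cytoplasmic domain, dispensed at 500 ng/ml onto nickel-chelate plates. Reaction buffer held 1 μM ATP, 10 mM MgCl2, vanadate and DTT at pH 8.0, for 1 h at room temperature.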
Target sequence in this assay (P08581 956-1390 limits assumed): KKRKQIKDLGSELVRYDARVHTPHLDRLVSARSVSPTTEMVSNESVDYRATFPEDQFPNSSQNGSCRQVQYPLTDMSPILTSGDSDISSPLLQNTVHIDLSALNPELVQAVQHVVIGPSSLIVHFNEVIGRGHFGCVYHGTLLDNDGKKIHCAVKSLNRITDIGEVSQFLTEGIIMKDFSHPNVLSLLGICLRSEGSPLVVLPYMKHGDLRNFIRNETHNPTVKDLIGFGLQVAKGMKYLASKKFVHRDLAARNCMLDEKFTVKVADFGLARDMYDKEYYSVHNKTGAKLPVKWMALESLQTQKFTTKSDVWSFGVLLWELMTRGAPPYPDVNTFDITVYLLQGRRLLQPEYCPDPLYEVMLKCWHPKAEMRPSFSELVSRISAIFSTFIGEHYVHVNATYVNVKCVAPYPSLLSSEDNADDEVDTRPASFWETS

SMILES	IC50 (c-Met [1])	IC50 (c-Met [2])
Clc1ccc(-c2ccc3nnc(Cc4ccc5ncccc5c4)n3n2)s1 [Example 77]	2 nM	1.5 nM
Cc1nc2ccc(-c3ccc4nnc(Cc5ccc6ncccc6c5)n4n3)cc2[nH]1 [Example 79, 6-[6-(2-Methyl-3H-benzoimidazol-5-yl)-[1,2,4]triazolo[4,3-b]pyridazin-3-ylmethyl]-quinoline]	3300 nM	30 nM
Cn1ccc2cc(-c3ccc4nnc(Cc5ccc6ncccc6c5)n4n3)ccc21 [Example 85, 6-[6-(1-Methyl-1H-indol-5-yl)-[1,2,4]triazolo[4,3-b]pyridazin-3-ylmethyl]-quinoline]	260 nM	53 nM
Cc1cc(-c2ccc3nnc(Cc4ccc5ncccc5c4)n3n2)ccn1 [Example 87, 6-[6-(2-Methyl-pyridin-4-yl)-[1,2,4]triazolo[4,3-b]pyridazin-3-ylmethyl]-quinoline]	4 nM	0.6 nM
Nc1ccc(-c2ccc3nnc(Cc4ccc5ncccc5c4)n3n2)cn1 [Example 88, 5-(3-Quinolin-6-ylmethyl-[1,2,4]triazolo[4,3-b]pyridazin-6-yl)-pyridin-2-ylamine]	50 nM	2 nM
COc1ccc(-c2ccc3nnc(Cc4ccc5ncccc5c4)n3n2)cn1 [Example 89, 6-[6-(6-Methoxy-pyridin-3-yl)-[1,2,4]triazolo[4,3-b]pyridazin-3-ylmethyl]-quinoline]	230 nM	4 nM
O=c1ccc(-c2ccc3nnc(Cc4ccc5ncccc5c4)n3n2)c[nH]1 [Example 90, 5-(3-Quinolin-6-ylmethyl-[1,2,4]triazolo[4,3-b]pyridazin-6-yl)-1H-pyridin-2-one]	540 nM	3 nM
Cc1nc2ccc(Cc3nnc4ccc(-c5cccnc5)nn34)cc2s1 [Example 92, 3-(2-Methyl-benzothiazol-6-ylmethyl)-6-pyridin-3-yl-[1,2,4]triazolo[4,3-b]pyridazine]	10 nM	4 nM
Cn1cc(-c2ccc3nnc(Cc4ccc5nc(N)sc5c4)n3n2)cn1 [Example 93, 6-[6-(1-Methyl-1H-pyrazol-4-yl)-[1,2,4]triazolo[4,3-b]pyridazin-3-ylmethyl]-benzothiazol-2-ylamine]	130 nM	4 nM
CN(C)c1nc2ccc(Cc3nnc4ccc(-c5cnn(C)c5)nn34)cc2s1 [Example 94, Dimethyl-{6-[6-(1-methyl-1H-pyrazol-4-yl)-[1,2,4]triazolo[4,3-b]pyridazin-3-ylmethyl]-benzothiazol-2-yl}-amine]	640 nM	30 nM

Continued, values first:

IC50 (c-Met [1])	IC50 (c-Met [2])	SMILES
9 nM	1 nM	Clc1cc(-c2ccc3nnc(Cc4ccc5ncccc5c4)n3n2)ccn1 [Example 95, 6-[6-(2-Chloro-pyridin-4-yl)-[1,2,4]triazolo[4,3-b]pyridazin-3-ylmethyl]-quinoline]
160 nM	12 nM	N#Cc1ccc(-c2ccc3nnc(Cc4ccc5ncccc5c4)n3n2)cn1 [Example 96, 5-(3-Quinolin-6-ylmethyl-[1,2,4]triazolo[4,3-b]pyridazin-6-yl)-pyridine-2-carbonitrile]
140 nM	5 nM	C#Cc1cc(-c2ccc3nnc(C(F)(F)c4ccc5ncccc5c4)n3n2)ccn1 [Example 100, 6-{[6-(2-Ethynyl-pyridin-4-yl)-[1,2,4]triazolo[4,3-b]pyridazin-3-yl]-difluoro-methyl}-quinoline]
34 nM	2 nM	FC(F)(c1ccc2ncccc2c1)c1nnc2ccc(-c3ccnc(Cl)c3)nn12 [Example 100b, 6-{[6-(2-Chloro-pyridin-4-yl)-[1,2,4]triazolo[4,3-b]pyridazin-3-yl]-difluoro-methyl}-quinoline]
120 nM	1 nM	N#Cc1cc(-c2ccc3nnc(C(F)(F)c4ccc5ncccc5c4)n3n2)ccn1 [Example 101, 4-[3-(Difluoro-quinolin-6-yl-methyl)-[1,2,4]triazolo[4,3-b]pyridazin-6-yl]-pyridine-2-carbonitrile]
79 nM	3 nM	CN1CCN(C(=O)c2ccc(-c3ccc4nnc(C(F)(F)c5ccc6occc6c5)n4n3)s2)CC1 [Example 102, {5-[3-(Benzofuran-5-yl-difluoro-methyl)-[1,2,4]triazolo[4,3-b]pyridazin-6-yl]-thiophen-2-yl}-(4-methyl-piperazin-1-yl)-methanone]
210 nM	4 nM	CN1CCN(C(=O)c2ccc(-c3ccc4nnc(C(F)(F)c5ccc6c(c5)CCO6)n4n3)s2)CC1 [Example 103, (5-{3-[(2,3-Dihydro-benzofuran-5-yl)-difluoro-methyl]-[1,2,4]triazolo[4,3-b]pyridazin-6-yl}-thiophen-2-yl)-(4-methyl-piperazin-1-yl)-methanone]
